Source: patent publication US20220396565A1 (Hoffmann-La Roche Inc., priority 2020, published 2022)
Counter-ions that a name gives are not always drawn. Like-named read-outs stand apart in the source and are kept apart here.

Tested on: Acinetobacter baumannii ATCC17961
Test: Antimicrobial susceptibility testing: 90% growth inhibitory concentration (IC90) determination, Iso-Sensitest broth
Format: cell-based
Method in brief: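 Twofold serial dilutions (e.g. 10 to 0.02 μM final) were tested in Iso-Sensitest broth against ~5×10^(5) CFU/ml at 35±2 °C. OD600 was read every 20 min over 16 h. IC90 was derived from growth inhibition during the logarithmic phase.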

[1] = Acinetobacter baumannii, ATCC17961, 90% growth inhibitory concentration, Acinetobacter baumannii ATCC17961, Iso-Sensitest broth, read-out: ATCC 17961 IC90
[2] = Acinetobacter baumannii, ATCC17961, read-out: ATCC 17961 IC90

Row | Compound | IC90 [1] | also measured
1 | Cn1c(-c2ccc(OCC#N)c(F)c2F)cnc1C(=O)Nc1ccc(C(=O)N2CCN(C(=O)[C@@H]3C[C@H](N)CN3)CC2)c(Cl)c1 [Example 209, N-(4-(4-((2S,4S)-4-aminopyrrolidine-2-carbonyl)piperazine-1-carbonyl)-3-chlorophenyl)-5-(4-(cyanomethoxy)-2,3-difluorophenyl)-1-methyl 1H-imidazole-2-carboxamide] | 0.08 µM | 
2 | COc1ccc(-c2cnc(C(=O)Nc3ccc(C(=O)N4CC5(C4)CN(C(=O)[C@@H]4C[C@@H](O)CN4)C5)c(Cl)c3)n2C)c(F)c1F [Example 112, N-[3-chloro-4-[2-[(2S,4R)-4-hydroxypyrrolidine-2-carbonyl]-2,6-diazaspiro[3.3]heptane-6-carbonyl]phenyl]-5-(2,3-difluoro-4-methoxy-phenyl)-1-methyl-imidazole-2-carboxamide] | 0.23 µM | 
3 | Cn1c(-c2ccc(OCC#N)c(F)c2F)cnc1C(=O)Nc1ccc(C(=O)N2CCN(C(=O)[C@H]3CCCNC3)CC2)c(Cl)c1 [Example 208, (S)-N-(3-chloro-4-(4-(piperidine-3-carbonyl)piperazine-1-carbonyl)phenyl)-5-(4-(cyanomethoxy)-2,3-difluorophenyl)-1-methyl 1H-imidazole-2-carboxamide 2,2,2-trifluoroacetate] |  | IC90 [2]: 0.05 µM
4 | CN(C)C(=O)c1ccc(-c2cnc(C(=O)Nc3ccc(C(=O)N4CCN(C(=O)C5CCNCC5)CC4)c(Cl)c3)n2C)c(F)c1F [Example 263, N-[3-chloro-4-[4-(piperidine-4-carbonyl)piperazine-1-carbonyl]phenyl]-5-[4-(dimethylcarbamoyl)-2,3-difluoro-phenyl]-1-methyl-imidazole-2-carboxamide formate] | 6.06 µM | 
5 | COc1ccc(-c2cnc(C(=O)Nc3ccc(C(=O)N4CCC(OCCN)CC4)c(Cl)c3)n2C)c(F)c1F [Example 22, N-[4-[4-(2-aminoethoxy)piperidine-1-carbonyl]-3-chloro-phenyl]-5-(2,3-difluoro-4-methoxy-phenyl)-1-methyl-imidazole-2-carboxamide formate] | 0.04 µM | 
6 | Cn1c(-c2ccc(OC(F)F)c(F)c2F)cnc1C(=O)Nc1ccc(C(=O)N2CCN(C(=O)C3CCN(CC(N)=O)CC3)CC2)c(Cl)c1 [Example 289] | 0.07 µM | 
7 | Cn1c(-c2ccc(OCF)c(F)c2F)cnc1C(=O)Nc1ccc(C(=O)N2CCN(C(=O)C[C@@H]3CCCN3)CC2)c(Cl)c1 [Example 157, N-[3-chloro-4-[4-[2-[(2S)-pyrrolidin-2-yl]acetyl]piperazine-1-carbonyl]phenyl]-5-[2,3-difluoro-4-(fluoromethoxy)phenyl]-1-methyl-imidazole-2-carboxamide formate] | 0.03 µM | 
8 | COc1ccc(-c2cnc(C(=O)Nc3ccc(C(=O)N4CCN(C(=O)C5CCC(=O)N5)CC4)c(Cl)c3)n2C)c(F)c1F (stereo not drawn) [Example 126, N-[3-chloro-4-[4-(5-oxopyrrolidine-2-carbonyl)piperazine-1-carbonyl]phenyl]-5-(2,3-difluoro-4-methoxy-phenyl)-1-methyl-imidazole-2-carboxamide] | 0.11 µM | 
9 | COc1ccc(-c2cnc(C(=O)Nc3ccc(C(=O)N4CCN(C(=O)N[C@H]5CNC[C@@H]5O)CC4)c(Cl)c3)n2C)c(F)c1F [Example 284, 4-[2-chloro-4-[[5-(2,3-difluoro-4-methoxy-phenyl)-1-methyl-imidazole-2-carbonyl]amino]benzoyl]-N-[(3S,4S)-4-hydroxypyrrolidin-3-yl]piperazine-1-carboxamide formate] |  | IC90 (90% growth inhibitory concentration, Acinetobacter baumannii ATCC17961, Iso-Sensitest broth, formate, read-out: ATCC 17961 IC90): 0.08 µM
10 | COc1ccc(-c2cnc(C(=O)Nc3ccc(C(=O)N4CCN(C(=O)C[C@H]5CCNC5)CC4)c(Cl)c3)n2C)c(F)c1F [Example 153, N-[3-chloro-4-[4-[2-[(3R)-pyrrolidin-3-yl]acetyl]piperazine-1-carbonyl]phenyl]-5-(2,3-difluoro-4-methoxy-phenyl)-1-methyl-imidazole-2-carboxamide formate] | 0.06 µM | 
11 | Cn1c(-c2ccc(OCF)c(F)c2F)cnc1C(=O)Nc1ccc(C(=O)N2CCC(C(=O)NC[C@@H]3CCNC3)CC2)c(Cl)c1 [Example 54, 1-[2-chloro-4-[[5-[2,3-difluoro-4-(fluoromethoxy)phenyl]-1-methyl-imidazole-2-carbonyl]amino]benzoyl]-N-[[(3R)-pyrrolidin-3-yl]methyl]piperidine-4-carboxamide formate] | 0.04 µM | 
12 | Cn1c(-c2ccc(OC(F)F)cc2F)cnc1C(=O)Nc1ccc(C(=O)N2CCN(C(=O)C3CCNCC3)CC2)c(Cl)c1 [Example 180, N-[3-chloro-4-[4-(piperidine-4-carbonyl)piperazine-1-carbonyl]phenyl]-5-[4-(difluoromethoxy)-2-fluoro-phenyl]-1-methyl-imidazole-2-carboxamide formate] | 0.06 µM | 
13 | Cn1c(-c2ccc(OCC#N)c(F)c2F)cnc1C(=O)Nc1ccc(C(=O)N2CCN(C(=O)[C@@H]3CCNC[C@H]3O)CC2)c(Cl)c1 [Example 227, N-(3-chloro-4-(4-((3S,4R)-3-hydroxypiperidine-4-carbonyl)piperazine-1-carbonyl)phenyl)-5-(4-(cyanomethoxy)-2,3-difluorophenyl)-1-methyl 1H-imidazole-2-carboxamide (S)-2-hydroxypropanoate] | 0.09 µM | 
14 | COc1ccc(-c2cnc(C(=O)Nc3ccc(C(=O)N4CCN(C(=O)C[C@@H]5CCNC5)CC4)c(Cl)c3)n2C)c(C#N)c1F [Example 260, N-[3-chloro-4-[4-[2-[(3S)-pyrrolidin-3-yl]acetyl]piperazine-1-carbonyl]phenyl]-5-(2-cyano-3-fluoro-4-methoxy-phenyl)-1-methyl-imidazole-2-carboxamide formate] | 0.25 µM | 
15 | Cn1c(-c2ccc(OC(F)F)c(F)c2F)cnc1C(=O)Nc1ccc(C(=O)N2CCC(C(=O)N[C@@H]3CNC[C@H]3O)CC2)c(Cl)c1 [Example 96, 1-(2-chloro-4-(5-(4-(difluoromethoxy)-2,3-difluorophenyl)-1-methyl-1H-imidazole-2-carboxamido)benzoyl)-N-((3R,4R)-4-hydroxypyrrolidin-3-yl)piperidine-4-carboxamide formate] | 0.04 µM | 
16 | Cn1c(-c2ccc(OCC#N)c(F)c2Cl)cnc1C(=O)Nc1ccc(C(=O)N2CCN(C(=O)C3CCNCC3)CC2)c(Cl)c1 [Example 252, 5-[2-chloro-4-(cyanomethoxy)-3-fluoro-phenyl]-N-[3-chloro-4-[4-(piperidine-4-carbonyl)piperazine-1-carbonyl]phenyl]-1-methyl-imidazole-2-carboxamide formate] | 0.06 µM | 
17 | Cn1c(-c2ccc(OC(F)F)c(F)c2F)cnc1C(=O)Nc1ccc(C(=O)N2CCC(C(=O)N[C@H]3CNC[C@@H]3O)CC2)c(Cl)c1 [Example 93, 1-(2-chloro-4-(5-(4-(difluoromethoxy)-2,3-difluorophenyl)-1-methyl-1H-imidazole-2-carboxamido)benzoyl)-N-((3S,4S)-4-hydroxypyrrolidin-3-yl)piperidine-4-carboxamide formate] |  | IC90 [2]: 0.04 µM
18 | Cc1cc(NC(=O)c2ncc(-c3ccc(OCF)c(Cl)c3F)n2C)ccc1C(=O)N1CCN(C(=O)[C@@H]2C[C@@H](O)CN2)CC1 [Example 248, 5-[3-chloro-2-fluoro-4-(fluoromethoxy)phenyl]-N-[4-[4-[(2S,4R)-4-hydroxypyrrolidine-2-carbonyl]piperazine-1-carbonyl]-3-methyl-phenyl]-1-methyl-imidazole-2-carboxamide] | 0.05 µM | 
19 | COc1ccc(-c2cnc(C(=O)Nc3ccc(C(=O)N4CCN(C(=O)CN5CCCC5)CC4)c(Cl)c3)n2C)c(F)c1F [Example 293, N-[3-Chloro-4-[4-(2-pyrrolidin-1-ylacetyl)piperazine-1-carbonyl]phenyl]-5-(2,3-difluoro-4-methoxy-phenyl)-1-methyl-imidazole-2-carboxamide formate] |  | IC90 [2]: 0.03 µM
20 | COc1ccc(-c2cnc(C(=O)Nc3ccc(C(=O)N4CCC(C(=O)NC5CCNCC5)CC4)c(Cl)c3)n2C)c(F)c1F [Example 38, 1-[2-chloro-4-[[5-(2,3-difluoro-4-methoxy-phenyl)-1-methyl-imidazole-2-carbonyl]amino]benzoyl]-N-(4-piperidyl)piperidine-4-carboxamide formate] | 0.06 µM | 
21 | COc1ccc(-c2cnc(C(=O)Nc3ccc(C(=O)N4CCC(C(=O)N[C@H]5CCNC5)CC4)c(Cl)c3)n2C)c(F)c1F [Example 58, 1-[2-chloro-4-[[5-(2,3-difluoro-4-methoxy-phenyl)-1-methyl-imidazole-2-carbonyl]amino]benzoyl]-N-[(3S)-pyrrolidin-3-yl]piperidine-4-carboxamide formate] | 0.05 µM | 
22 | COc1ccc(-c2cnc(C(=O)Nc3ccc(C(=O)N4CCN(C(=O)[C@@H]5CCNC[C@@H]5O)CC4)c(C)c3)n2C)c(F)c1F [Example 234, 5-(2,3-difluoro-4-methoxy-phenyl)-N-[4-[4-[(3R,4R)-3-hydroxypiperidine-4-carbonyl]piperazine-1-carbonyl]-3-methyl-phenyl]-1-methyl-imidazole-2-carboxamide formate] | 0.18 µM | 
23 | COc1ccc(-c2cnc(C(=O)Nc3ccc(C(=O)N4CCN(C(=O)C5(O)CCNCC5)CC4)c(C)c3)n2C)c(Cl)c1F [Example 118, 5-(2-chloro-3-fluoro-4-methoxy-phenyl)-N-[4-[4-(4-hydroxypiperidine-4-carbonyl)piperazine-1-carbonyl]-3-methyl-phenyl]-1-methyl-imidazole-2-carboxamide formate] | 0.14 µM | 
24 | COc1ccc(-c2cnc(C(=O)Nc3ccc(C(=O)N4CCN(C(=O)C5CCNCC5)CC4)c(Cl)c3)n2C)c(F)c1OC [Example 257, N-[3-chloro-4-[4-(piperidine-4-carbonyl)piperazine-1-carbonyl]phenyl]-5-(2-fluoro-3,4-dimethoxy-phenyl)-1-methyl-imidazole-2-carboxamide formate] | 0.23 µM | 
